Experimental data as given in patent publication US10196401B2, “Spiro-lactam NMDA receptor modulators and uses thereof” (Aptinyx Inc., priority 2016, dated 2019).

Assays:
NMDAR2A = NMDAR2A (Homo sapiens, UniProt Q12879); experiment: Potentiation of [3H]MK-801 binding, NMDAR2A; design: species or system rat; conditions: NMDAR2A binding profile; for % 1 mM Glycine: relative to 1 mM glycine
Method: (§1) Assays were conducted as described by Moskal et al., “GLYX-13: a monoclonal antibody-derived peptide that acts as an N-rnethyl-D-aspartate receptor modulator,” Neuropharmacology, 49, 1077-87, 2005. The potentiation of [^3H]MK-801 binding (5 nrM; 22.5 Ci/mmol) to well washed rat cortical membranes (200 μg) was measured under non-equilibrium conditions (15 min @ 25° C.) in the presence of increasing concentrations of Compound A.
(§2) Assays were conducted as described above in Example 5, by Moskal et al. (2005).

NMDAR2B = NMDAR2B (Homo sapiens, UniProt Q13224); experiment: Potentiation of [3H]MK-801 binding, NMDAR2B; design: species or system rat; conditions: NMDAR2B binding profile; for % 1 mM Glycine: relative to 1 mM glycine
Sequence of NMDAR2B (Q13224 27-1484, species assumed, other chains not shown): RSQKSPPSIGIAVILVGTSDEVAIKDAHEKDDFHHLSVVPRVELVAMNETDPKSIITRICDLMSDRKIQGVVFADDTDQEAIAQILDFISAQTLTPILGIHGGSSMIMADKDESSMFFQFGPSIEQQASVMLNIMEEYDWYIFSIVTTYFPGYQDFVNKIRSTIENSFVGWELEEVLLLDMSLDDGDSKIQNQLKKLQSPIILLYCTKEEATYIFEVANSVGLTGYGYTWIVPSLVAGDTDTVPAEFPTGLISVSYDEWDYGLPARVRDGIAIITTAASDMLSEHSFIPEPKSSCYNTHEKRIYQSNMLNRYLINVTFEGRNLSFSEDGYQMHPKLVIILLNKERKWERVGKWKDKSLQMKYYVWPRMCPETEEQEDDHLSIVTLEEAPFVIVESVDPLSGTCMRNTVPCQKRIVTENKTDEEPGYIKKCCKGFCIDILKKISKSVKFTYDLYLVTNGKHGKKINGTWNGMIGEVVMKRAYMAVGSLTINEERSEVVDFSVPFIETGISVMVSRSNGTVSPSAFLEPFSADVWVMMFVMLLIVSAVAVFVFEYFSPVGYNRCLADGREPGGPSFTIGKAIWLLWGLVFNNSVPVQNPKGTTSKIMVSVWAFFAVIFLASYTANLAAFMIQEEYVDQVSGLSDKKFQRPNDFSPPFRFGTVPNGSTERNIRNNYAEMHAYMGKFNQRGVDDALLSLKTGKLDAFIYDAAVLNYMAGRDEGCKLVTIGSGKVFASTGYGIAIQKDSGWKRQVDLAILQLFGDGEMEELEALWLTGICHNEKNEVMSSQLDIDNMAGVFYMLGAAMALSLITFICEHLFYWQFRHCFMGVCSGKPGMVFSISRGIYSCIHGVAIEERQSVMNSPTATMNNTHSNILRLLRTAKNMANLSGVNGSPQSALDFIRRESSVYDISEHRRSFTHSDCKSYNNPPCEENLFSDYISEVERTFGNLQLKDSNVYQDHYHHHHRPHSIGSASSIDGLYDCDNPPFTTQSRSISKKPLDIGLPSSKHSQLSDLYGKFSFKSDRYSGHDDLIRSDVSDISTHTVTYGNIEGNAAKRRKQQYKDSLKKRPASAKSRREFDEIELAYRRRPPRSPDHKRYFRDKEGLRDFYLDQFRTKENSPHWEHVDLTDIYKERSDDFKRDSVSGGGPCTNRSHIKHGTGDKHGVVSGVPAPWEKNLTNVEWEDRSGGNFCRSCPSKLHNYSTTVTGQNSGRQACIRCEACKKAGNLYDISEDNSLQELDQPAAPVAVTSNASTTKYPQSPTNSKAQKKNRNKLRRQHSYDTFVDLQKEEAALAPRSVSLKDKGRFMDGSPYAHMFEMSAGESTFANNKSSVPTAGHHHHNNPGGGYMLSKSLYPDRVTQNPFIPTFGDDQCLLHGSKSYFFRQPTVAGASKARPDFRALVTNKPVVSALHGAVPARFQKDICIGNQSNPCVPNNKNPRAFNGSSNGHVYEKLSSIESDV

NMDAR2C = NMDAR2C (Homo sapiens, UniProt Q14957); experiment: Potentiation of [3H]MK-801 binding, NMDAR2C; design: species or system rat; conditions: NMDAR2C binding profile; for % 1 mM Glycine: relative to 1 mM glycine
Sequence of NMDAR2C (Q14957 20-1233, species assumed, other chains not shown): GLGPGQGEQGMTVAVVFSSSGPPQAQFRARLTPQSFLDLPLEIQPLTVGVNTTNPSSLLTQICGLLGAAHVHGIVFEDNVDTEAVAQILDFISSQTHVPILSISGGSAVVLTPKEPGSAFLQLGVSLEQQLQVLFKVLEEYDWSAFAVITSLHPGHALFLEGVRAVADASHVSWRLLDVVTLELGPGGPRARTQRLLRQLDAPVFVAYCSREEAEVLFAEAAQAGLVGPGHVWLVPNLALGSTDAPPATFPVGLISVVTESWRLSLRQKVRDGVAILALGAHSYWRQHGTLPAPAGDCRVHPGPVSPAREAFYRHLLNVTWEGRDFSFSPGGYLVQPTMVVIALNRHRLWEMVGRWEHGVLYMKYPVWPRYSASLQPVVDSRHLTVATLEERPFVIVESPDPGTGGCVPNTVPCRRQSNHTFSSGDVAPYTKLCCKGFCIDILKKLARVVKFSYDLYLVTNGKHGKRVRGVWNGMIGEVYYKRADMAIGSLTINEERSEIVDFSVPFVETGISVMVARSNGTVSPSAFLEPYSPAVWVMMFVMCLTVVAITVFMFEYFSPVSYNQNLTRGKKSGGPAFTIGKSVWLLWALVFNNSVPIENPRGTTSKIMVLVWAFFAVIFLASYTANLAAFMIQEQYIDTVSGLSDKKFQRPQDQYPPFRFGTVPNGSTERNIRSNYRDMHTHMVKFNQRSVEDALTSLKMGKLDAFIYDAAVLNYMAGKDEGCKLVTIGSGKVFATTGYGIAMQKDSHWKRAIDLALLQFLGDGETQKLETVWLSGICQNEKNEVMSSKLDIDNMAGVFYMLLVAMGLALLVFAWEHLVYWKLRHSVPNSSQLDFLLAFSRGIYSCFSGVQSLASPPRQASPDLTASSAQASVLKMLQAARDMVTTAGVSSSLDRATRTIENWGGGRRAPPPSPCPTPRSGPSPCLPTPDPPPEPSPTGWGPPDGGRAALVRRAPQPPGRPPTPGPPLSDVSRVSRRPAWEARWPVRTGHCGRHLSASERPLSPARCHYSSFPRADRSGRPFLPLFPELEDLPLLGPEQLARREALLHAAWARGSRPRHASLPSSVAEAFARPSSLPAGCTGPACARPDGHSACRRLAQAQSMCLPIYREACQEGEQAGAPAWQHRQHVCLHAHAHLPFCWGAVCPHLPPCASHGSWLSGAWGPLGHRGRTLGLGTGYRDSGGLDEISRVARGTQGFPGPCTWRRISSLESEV

NMDAR2D = NMDAR2D (Homo sapiens, UniProt O15399); experiment: Potentiation of [3H]MK-801 binding, NMDAR2D; design: species or system rat; conditions: NMDAR2D binding profile; for % 1 mM Glycine: relative to 1 mM glycine
Sequence of NMDAR2D (O15399 28-1336, species assumed, other chains not shown): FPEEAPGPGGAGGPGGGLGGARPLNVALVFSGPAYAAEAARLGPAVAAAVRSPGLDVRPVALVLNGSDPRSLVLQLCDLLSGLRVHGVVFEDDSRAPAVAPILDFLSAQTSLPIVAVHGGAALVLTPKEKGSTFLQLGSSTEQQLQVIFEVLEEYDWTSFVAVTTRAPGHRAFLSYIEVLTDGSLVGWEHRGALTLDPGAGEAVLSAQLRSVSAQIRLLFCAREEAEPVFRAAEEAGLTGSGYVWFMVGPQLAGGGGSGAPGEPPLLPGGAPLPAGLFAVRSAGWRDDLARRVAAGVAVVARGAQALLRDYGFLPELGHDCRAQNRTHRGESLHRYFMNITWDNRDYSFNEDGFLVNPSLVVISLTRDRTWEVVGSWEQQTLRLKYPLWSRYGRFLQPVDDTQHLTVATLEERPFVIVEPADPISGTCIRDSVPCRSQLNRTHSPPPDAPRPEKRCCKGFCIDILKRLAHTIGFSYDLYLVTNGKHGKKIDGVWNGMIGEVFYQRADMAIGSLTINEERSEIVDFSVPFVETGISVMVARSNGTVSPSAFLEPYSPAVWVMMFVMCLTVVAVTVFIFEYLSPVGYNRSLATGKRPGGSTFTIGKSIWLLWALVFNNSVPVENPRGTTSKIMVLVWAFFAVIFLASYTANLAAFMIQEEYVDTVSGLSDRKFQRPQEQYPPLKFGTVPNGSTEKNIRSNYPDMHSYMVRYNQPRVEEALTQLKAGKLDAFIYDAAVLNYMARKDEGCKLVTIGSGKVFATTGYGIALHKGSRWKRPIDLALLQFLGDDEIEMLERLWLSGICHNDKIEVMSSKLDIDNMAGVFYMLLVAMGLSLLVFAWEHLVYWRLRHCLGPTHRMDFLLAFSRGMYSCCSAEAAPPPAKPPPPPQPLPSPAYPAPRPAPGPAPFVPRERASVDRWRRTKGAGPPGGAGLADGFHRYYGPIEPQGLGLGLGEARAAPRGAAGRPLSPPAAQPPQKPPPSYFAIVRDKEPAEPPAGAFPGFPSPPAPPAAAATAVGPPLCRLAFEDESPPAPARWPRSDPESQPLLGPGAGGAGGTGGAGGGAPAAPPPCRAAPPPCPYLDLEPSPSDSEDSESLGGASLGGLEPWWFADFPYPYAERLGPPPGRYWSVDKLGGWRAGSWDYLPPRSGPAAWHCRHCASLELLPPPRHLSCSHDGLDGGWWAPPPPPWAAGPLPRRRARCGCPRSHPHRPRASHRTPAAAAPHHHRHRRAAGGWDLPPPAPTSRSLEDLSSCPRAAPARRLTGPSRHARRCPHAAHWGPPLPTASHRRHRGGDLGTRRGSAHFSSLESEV
Method: as §1, §2

Sprague Dawley rats = experiment: Bennett model of mechanical analgesia (paw withdrawal threshold); type: in vivo, rat; conditions: 150 mg/kg PO; tested 1 h, 24 hrs and 1 week post-dosing
Method: Bennett G J, Xie Y K, “A peripheral mononeuropathy in rat that produces disorders of pain sensation like those seen in man,” Pain 33:87-107, 1988. […] Vehicle animals receive the surgery and then receive vehicle rather than test compound. Animals were tested 1 hr, 24 h and 1 wk post-test compound or vehicle administration.
Male 2-3 month old Sprague Dawley rats were used. Harlan was the supplier for all studies. Rats were housed in Lucite cages with aspen wood chip bedding, maintained on a 12:12 light:dark cycle (lights on at 5 AM), and given ad libitum access to Purina lab chow (USA) and tap water throughout the study.
Rats were anesthetized using inhaled isoflurane (2.5%). Spared nerve injury surgery was performed as previously described (Bennett and Xie, 1988). An incision (˜1.5 cm in length) was made with a scalpel blade dorsally through skin on the right hindlimb, parallel and posterior to femur. Using a small pointed hemostat, the biceps femoris and gluteus superficialis muscles were separated. Using curved blunt forceps, the common sciatic nerve was isolated and exposed. For the mechanical analgesia studies, the whole sciatic nerve was ligated. Using hemostats/forceps and chromic gut (5-0), the nerve was loosely ligated with a square knot; 3 ligatures, 1 mm apart were placed on the nerve. […] For the thermal analgesia studies, the common peroneal and tibial branches of the sciatic nerve were ligated and cut, and the sural branch was spared. See Decosterd I, Woolf C J, “Spared nerve injury: an animal model of persistent peripheral neuropathic pain,” Pain 87:149-158, 2000. Testing occurred 1-2 weeks post-surgery.
During testing, rats were acclimated to the surface of a suspended wire mesh grid (1 cm×1 cm, with the wire being 0.3 cm in diameter) for 15-20 min. Starting from the smallest, each Von Frey filament was pressed perpendicularly to the plantar surface of the affected (ipsilateral) hindpaw until slightly bent and then held for 6 second. […]

## C[C@@H](O)[C@@H](C(N)=O)N1C[C@]2(CCCN2C(=O)OC(C)(C)C)C1=O [Compound W, tert-butyl (R)-2-((2S,3R)-1-amino-3-hydroxy-1-oxobutan-2-yl)-1-oxo-2,5-diazaspiro[3.4]octane-5-carboxylate]
NMDAR2A
  Conclusion: WT2A agonist
  % 1 mM Glycine: 18.33%
NMDAR2B
  Conclusion: WT2B agonist
  % 1 mM Glycine: 53.09%
NMDAR2C
  Conclusion: WT2C agonist
  % 1 mM Glycine: 67.5%
NMDAR2D
  Conclusion: agonist
  % 1 mM Glycine: 66.72%

## CC(C)C(=O)N1CCC[C@@]12CN([C@H](C(N)=O)[C@@H](C)O)C2=O [Compound Z, (2S,3R)-3-hydroxy-2-((S)-5-isobutyryl-1-oxo-2,5-diazaspiro[3.4]octan-2-yl)butanamide]
NMDAR2A
  Conclusion: WT2A agonist
  % 1 mM Glycine: 42.5%
NMDAR2B
  Conclusion: WT2B agonist
  % 1 mM Glycine: 70.49%
NMDAR2C
  Conclusion: WT2C agonist
  % 1 mM Glycine: 47.76%
NMDAR2D
  Conclusion: agonist
  % 1 mM Glycine: 65.32%

## CC(C)C(=O)N1CCC[C@]12CN([C@H](C(N)=O)[C@@H](C)O)C2=O [Compound Y, (2S,3R)-3-hydroxy-2-((R)-5-isobutyryl-1-oxo-2,5-diazaspiro[3.4]octan-2-yl)butanamide]
NMDAR2A
  Conclusion: WT2A agonist
  % 1 mM Glycine: 61.76%
NMDAR2B
  Conclusion: WT2B agonist
  % 1 mM Glycine: 70.74%
NMDAR2C
  Conclusion: WT2C agonist
  % 1 mM Glycine: 64.24%
NMDAR2D
  Conclusion: agonist
  % 1 mM Glycine: 54.85%

## NCC1(CC(=O)O)CCCCC1 [gabapentin, reference compound]
Sprague Dawley rats
  analgesic effect in the Bennett model: only produced an analgesic effect 1 h post-dosing

## C[C@@H](O)[C@@H](C(N)=O)N1C[C@@]2(CCCN2C(=O)OC(C)(C)C)C1=O [Compound X, tert-butyl (S)-2-((2S,3R)-1-amino-3-hydroxy-1-oxobutan-2-yl)-1-oxo-2,5-diazaspiro[3.4]octane-5-carboxylate]
NMDAR2A
  Conclusion: WT2A agonist
  % 1 mM Glycine: 41.04%
NMDAR2B
  Conclusion: WT2B agonist
  % 1 mM Glycine: 59.55%
NMDAR2C
  Conclusion: WT2C agonist
  % 1 mM Glycine: 59.73%
NMDAR2D
  Conclusion: agonist
  % 1 mM Glycine: 93.58%
